One may read the Kd as the constant that tells how readily two partners part at equilibrium. As usually defined, the fold induction is the signal under treatment as a multiple of the control signal.

Each structure is given as a SMILES string.

The values below come from patent publication US20230063230A1, “NURR1 RECEPTOR MODULATORS” (priority 2019, published 2023).

One assay concerns Nurr1 target genes. The experiment in a line: Transcription of Nurr1 target genes in live zebrafish. The assay is classed as in vivo. From the text:
(§1) Dopamine is broken down inside the neurons that produce it, generating oxygen free-radicals and other potentially damaging molecules (53). Among the reactive metabolites is 5,6-dihydroxyindole (DHI), a compound that undergoes spontaneous oxidation to a reactive quinone, which oligomerizes to form a polymer (neuromelanin) of unknown function. This polymer accounts for the dark appearance of nigrostriatal neurons in the normal adult CNS (54,55). Dopamine is also a central player in stress and addiction (3). It is clear that dopamine levels need to be tightly regulated in the CNS. Nurr1 controls all the genes required for dopamine synthesis, but its regulation is poorly understood as the receptor lacks both the canonical NR ligand binding pocket and the classic NR co-regulator binding surface (33). We postulated that Nurr1 might be regulated by dopamine itself, or one of its metabolites, and investigated this possibility using a combination of biophysical and structural techniques. […] Identifying stable analogs of DHI will enable more detailed studies of this intriguing biology.

For assay [1], the target named is Nurr1 ligand binding domain (Homo sapiens, UniProt P43354). The experiment in a line: Crystal structures of ligands covalently bound to Nurr1. The following applies: crystal structure, Cys566.
Sequence of Nurr1 ligand binding domain (P43354 360-595 limits assumed): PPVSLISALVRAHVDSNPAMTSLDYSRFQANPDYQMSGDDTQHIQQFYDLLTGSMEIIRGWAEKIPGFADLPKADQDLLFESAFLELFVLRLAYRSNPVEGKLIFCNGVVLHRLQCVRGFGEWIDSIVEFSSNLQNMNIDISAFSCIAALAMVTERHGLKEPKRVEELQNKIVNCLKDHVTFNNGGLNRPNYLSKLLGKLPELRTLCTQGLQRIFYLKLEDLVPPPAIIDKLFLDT
Excerpt: First, we used the Nurr1 ligand binding domain (LBD) and a disulfide-trapping screen to identify 50 compounds that conjugate directly to Nurr1, undergoing a disulfide exchange reaction with Cys566.
Assay [2] has as its target T1, Nurr1 LBD fused to Gal4 DBD (Homo sapiens, UniProt P43354).
T1 construct: expressed in transfected cells; host or cells: SK-N-BE(2)C cells (ATCC CRL-2268)
The assay is described as follows: Luciferase reporter assay. The assay is classed as cell-based. The procedure:
In particular, direct binding to the Nurr1 LBD in vitro was measured using microscale thermophoresis (MST) and surface plasmon resonance (SPR), and efficacy in cells was measured using a lucifierase reporter assay (Nurr1 LBD fused to Gal4 DBD, measuring effect on luciferase activity) and target gene transcription assays (full length Nurr1, measuring mRNA levels of specific Nurr1 target genes). These assays pointed to a subset of compounds that bind directly to the Nurr1 LBD (by MST and/or SPR) and produce >1.5-fold changes in Nurr1 activity in cells (by Luc and/or TGT assays) (Table 1, Table 2).
Luciferase Reporter Assays. pBIND—Nurr1 is generated by cloning Nurr1 LBD (a.a. 328-598 of human Nurr1) into pBIND vector (Promega E2440). The pBIND vector also contains a Renilla luciferase gene under the control of the SV40 Promoter that can be used to normalize the transfection efficiency. The firefly luciferase reporter pG5-Luc vector (Promega E2440) contains 5 repeats of GAL4 UAS (upstream activation sequence) upstream of luciferase gene. SK—N— BE(2)C cells (ATCC CRL-2268) were transiently transfected with pBIND—Nurr1 and pG5-Luc by FuGENE HD (Promega, E2311) in 96-well-plate with the seeding density of 200,000 cells/mL. […] After 18 hours, the luminescence of Firefly and Renilla luciferase were measured by Dual Luciferase Reporter Assay System (Promega E1960).

The target in assay [3] is T2, Nurr1 LBD (Homo sapiens, UniProt P43354). The assay is described as follows: Differential scanning fluorimetry (DSF). The assay is classed as binding.
T2 sequence (P43354 360-595 limits assumed): as above
Excerpt: as §1
A general note: Differential scanning fluorimetry follows unfolding on heating by fluorescence.

Assay [4] concerns the target T2, Nurr1 LBD. The assay is described as follows: Surface plasmon resonance (SPR) assay. The format is binding. The procedure:
Surface Plasmon Resonance Assays. Data were collected using Biacore T200 (GE) instrument at a flow rate of 30 μL/min and at a temperature of 25° C. The running buffer was 25 mM HEPES, pH 7.4, 150 mM NaCl, 0.05% Surfactant Tween 20, and 2% DMSO. The biotinylated Nurr1 LBD was immobilized on a sensor chip SA (GE Healthcare Life Sciences; product number 29104992) or at 6000-7000 RU, or a CAP chip (GE Healthcare Life Sciences; product number 28920234) at 1500-2000 RU. Data collection was performed with kinetic titration mode. Analytes dilutions were carried out starting from DMSO stocks (10 mM). Analytes dissolved in DMSO were added to 1.02x running buffer without DMSO to yield a final DMSO concentration of 2%. When using CAP chip, surface regeneration was performed between each titration curve using 6 M guanidine.HCl+0.25 M NaOH regeneration solution followed by re-immobilization of Nurr1 (as described in the manufacturer's regeneration protocol). Data processing included double referencing (i.e., reference flow cell and buffer subtracted using a buffer injection of appropriate contact time for the given injection). Solvent correction was performed using a standard curve in a range of 1.8-2.3% DMSO.
(In general: In SPR one partner is held on a chip, and binding of the other changes the refractive index at the surface.)

Another assay has as its system Nurr1 in MN9D. The experiment in a line: qPCR MN9D Nurr1. The following applies: cpds tested at 10 μM, analogs of compound 87. The assay is classed as cell-based.
In the next assay the test system is Th in MN9D. The assay is described as follows: qPCR MN9D Th. The following applies: cpds tested at 10 μM, analogs of compound 87. The format is cell-based. In general terms: Real-time PCR tracks product formation cycle by cycle.

T1 sequence (P43354 328-598): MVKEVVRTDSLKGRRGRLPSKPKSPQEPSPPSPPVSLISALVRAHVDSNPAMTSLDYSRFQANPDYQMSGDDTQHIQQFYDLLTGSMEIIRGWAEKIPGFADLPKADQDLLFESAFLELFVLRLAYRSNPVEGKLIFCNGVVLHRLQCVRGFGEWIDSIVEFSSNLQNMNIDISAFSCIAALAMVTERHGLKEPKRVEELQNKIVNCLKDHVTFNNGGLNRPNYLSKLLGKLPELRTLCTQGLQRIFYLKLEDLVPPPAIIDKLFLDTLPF

As for `Oc1cc2cc[nH]c2cc1O` [DHI, 5,6-dihydroxyindole], the “Expression of VMAT” value with Nurr1 target genes (acute exposure (6 h, data not shown)) is “drives the expression”. Also, in the assay on Nurr1 target genes (in vivo), the “Transcription of Nurr1 target genes in live zebrafish” value is “driving transcription of Nurr1 target genes”. Also, in the assay on Nurr1 target genes (longer exposure (24 h)), the “Expression of TH” value is “drives the expression”. For the same molecule, in assay [1], the “Covalent binding to Nurr1” value was “reversible covalent adduct with Cys566”. Further, the “Nurr1 activity in the reporter assay” value in assay [2] was “stimulating Nurr1 activity”. Further, the “Stabilization of the Nurr1 LBD, melting temperature” value on Nurr1 LBD [3] is “increasing the melting temperature by one degree”. For the same molecule, the Off-rate entry at Nurr1 LBD [4] is listed as “very slow off-rate”. Moreover, the Kd on Nurr1 LBD [4] (read-out: Kd for binding to Nurr1) was found to be 5 µM.

For `CC(=O)SCCn1cc(C(C)(C)NC(=O)c2cccc(C#N)c2)nn1` [SP 196, S-2-(4-(2-(3-cyanobenzamido)propan-2-yl)-1H-1,2,3-triazol-1-yl)ethyl ethanethioate], the figures for the fold induction at 10 µM with Nurr1 in MN9D and in the assay on Th in MN9D were greater than 4 and greater than 1.5, respectively.
